Data set [1] has as its target T1, Recombinant CYP3A4 Supersomes (Homo sapiens, UniProt P08684).
T1 construct: purchased
Briefly: Recombinant CYP3A4 Clearance Assay. The conditions noted are these: for % of Control (intrinsic clearance relative to the control compound): observed CLint divided by average CLint of undeuterated control compound; for Half-Life / CLint: recombinant CYP3A4 50 pmol/mL, 1 μM substrate, NADPH; for Half-Life: 0-120 minutes; for CLint: control = geometric mean of 3 replicates. The format is in vitro ADME. The method, then: The CYP3A4 Clearance Assay was performed to determine the stability of deuterated compounds described herein and calculate changes in clearance relative to the control compound (undeuterated compound) that has the following structure:
Recombinant CYP3A4 Supersomes were prepared in 100 mM potassium phosphate buffer (50 pmol/mL final recombinase) and 80 μL aliquots were delivered per well to 96-well reaction plates containing 10 μL/well stock working solution containing substrate at 10× final concentration in 0.1:9.9:90 DMSO:ACN:100 mM phosphate buffer. Final substrate concentration during incubation was 1 μM. Reaction mixtures were pre-incubated at 37° C. for 10 minutes, prior to addition of 10 μL/well of NADPH regenerating system to initiate the reaction (β-Nicotinamide adenine dinucleotide phosphate) or 100 mM phosphate as a buffer control.
Clearance assessments were performed for test compounds in singlicate except for the control compound, which was tested in triplicate. Incubations were maintained at 37° C. for 0, 5, 15, 30, 45, 60, 90, and 120 minutes (or 0 and 120 minutes for buffer control). The reactions were terminated with 3× volume of cold (4° C.) acetonitrile (ACN) containing 200 ng/mL tolbutamide and 200 ng/mL labetalol as internal standards (IS). The crash plates were centrifuged at 4000 rpm at 4° C. for 20 min to precipitate residual protein. Following protein precipitation, sample supernatants were harvested and 3× volume of HPLC grade water was added to each sample for chromatography purposes. Plates were sealed and shaken for 10 minutes prior to LC-MS/MS analysis using generic LCMS/MS conditions.
(§1) LC-MS/MS chromatograms were analyzed by peak area ratio (test article peak area/internal standard peak area) and natural log transformed, and plotted against time. The slope of the line was determined to calculate elimination rate constant. Subsequently, half-life (t1/2) and intrinsic clearance (CLint) were calculated using the following equations: […]
Average intrinsic clearance of the control compound was determined by taking the geometric mean of 3 replicates.

In data set [2] the test system is HμRELhumanPool 96-well hepatic co-culture. The data set is described as follows: Hμrel Low Clearance Assay. Type of data set: in vitro ADME, human. Further details: % of Control (intrinsic clearance relative to the control compound): tested at 1 µM. To be noted: for Half-Life: human hepatic co-culture, 1 μM substrate, 0-72 hr incubation; for % of Control (intrinsic clearance relative to the control compound): observed CLint divided by average CLint of undeuterated control compound. The method, then:
(§2) The Hμrel Low Clearance Assay was performed to determine the stability of deuterated compounds described herein and calculate changes in clearance relative to the control compound (undeuterated compound) that has the following structure:
(§3) HμRELhumanPool™ 96-well hepatic co-culture plates were media changed and cells were allowed to acclimatize at 37° C. for 20 hr. HμREL® incubation media (serum free) and test compound diluted from a 1000×DMSO stock (final substrate concentration 1 μM; final DMSO concentration 0.1%) were added to the HμREL© 96-well co-culture system at a final cell number of 30,000 cells per well to initiate the reaction. The final incubation volume was 80 μL per time point and two control compounds were included for reference (ketoprofen and prednisolone). All clearance assessments were performed in singlicate with the exception of the undeuterated control compound, which was tested in duplicate on two separate days for a total of 4 replicates. Each compound was incubated for 0, 2, 6, 24, 48 and 72 hr. The reactions were terminated by transferring 60 μL of incubate to 180 μL acetonitrile containing internal standard at the appropriate time points. The crash plates were centrifuged at 3000 rpm at 4° C. for 20 min to precipitate residual protein. Following protein precipitation, sample supernatants were combined in cassettes of up to 4 compounds and analyzed using generic LCMS/MS conditions.
as §1
(§4) Average clearance of the control compound was determined by taking the geometric mean of 3 of the four replicates. The fourth replicate was excluded from the average determination as an outlier.

The nature of data set [3]: Hμrel Low Clearance Assay. The format is in vitro ADME, human. Details: % of Control (intrinsic clearance relative to the control compound): tested at 1 µM. To be noted: HμRELhumanPool 96-well hepatic co-culture, human hepatic co-culture, 1 μM substrate, 0-72 hr incubation, control = geometric mean of 3 replicates. The protocol: as §2, §3, §1, §4

T1 sequence (P08684 whole entry): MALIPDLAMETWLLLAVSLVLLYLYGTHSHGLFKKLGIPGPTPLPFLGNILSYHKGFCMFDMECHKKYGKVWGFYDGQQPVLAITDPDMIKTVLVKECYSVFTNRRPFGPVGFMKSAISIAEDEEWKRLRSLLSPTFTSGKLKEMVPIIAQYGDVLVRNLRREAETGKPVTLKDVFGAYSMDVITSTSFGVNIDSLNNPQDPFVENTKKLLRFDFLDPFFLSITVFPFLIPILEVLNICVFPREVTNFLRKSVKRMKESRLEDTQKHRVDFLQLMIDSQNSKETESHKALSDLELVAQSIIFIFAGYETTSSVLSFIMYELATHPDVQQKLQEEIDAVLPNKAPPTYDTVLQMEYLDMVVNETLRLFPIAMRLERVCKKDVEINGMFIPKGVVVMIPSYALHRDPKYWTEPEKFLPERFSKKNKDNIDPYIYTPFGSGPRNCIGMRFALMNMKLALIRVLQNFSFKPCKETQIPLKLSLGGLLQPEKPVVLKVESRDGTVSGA

For the compound `[2H]C([2H])([2H])C(C)(NC(=O)CN1CCC(CNC(=O)c2cc(F)cc(Cl)c2)CC1)C([2H])([2H])[2H]` [Compound 14, 3-chloro-5-fluoro-N-[[1-[2-oxo-2-[[2,2,2-trideuterio-1-methyl-1-(trideuteriomethyl)ethyl]amino]ethyl]-4-piperidyl]methyl]benzamide], in data set [1], the “% of Control (intrinsic clearance relative to the control compound)” value worked out at 105%, the Half-Life stood at 0.125 h and the CLint is 1.85 µL/min/pmol. In data set [2], the Half-Life came to 34.83 h and the “% of Control (intrinsic clearance relative to the control compound)” value was 62.5%. Also, in data set [3] (human), the hepatocyte CLint at 1 μM was found to be 0.885 µL/min/1e6 cells.

In the case of `[2H]C1([2H])N(CC(=O)NC(C)(C)C)C([2H])([2H])C([2H])([2H])C([2H])(CNC(=O)c2cc(F)cc(Cl)c2)C1([2H])[2H]` [Compound 1, N-[[1-[2-(tert-butylamino)-2-oxo-ethyl]-2,2,3,3,4,5,5,6,6-nonadeuterio-4-piperidyl]methyl]-3-chloro-5-fluoro-benzamide], in data set [1], the “% of Control (intrinsic clearance relative to the control compound)” value stood at 65.3%, the Half-Life came to 0.202 h and the CLint turned out to be 1.15 µL/min/pmol. For the same compound, in data set [2], the Half-Life amounted to 57.17 h and the “% of Control (intrinsic clearance relative to the control compound)” value came out at 38.1%. The compound also registered a hepatocyte CLint at 1 μM in data set [3] (human) of 0.539 µL/min/1e6 cells.

On to `[2H]C([2H])([2H])C(NC(=O)CN1C([2H])([2H])C([2H])([2H])C([2H])(CNC(=O)c2cc(F)cc(Cl)c2)C([2H])([2H])C1([2H])[2H])(C([2H])([2H])[2H])C([2H])([2H])[2H]` [Compound 12, 3-chloro-5-fluoro-N-[[2,2,3,3,4,5,5,6,6-nonadeuterio-1-[2-oxo-2-[[2,2,2-trideuterio-1,1-bis(trideuteriomethyl)ethyl]amino]ethyl]-4-piperidyl]methyl]benzamide], for which, in data set [1], the “% of Control (intrinsic clearance relative to the control compound)” value was determined as 60.3%, the Half-Life worked out at 0.218 h and the CLint was determined as 1.06 µL/min/pmol. Moreover, in data set [2], the Half-Life worked out at 45.5 h and the “% of Control (intrinsic clearance relative to the control compound)” value is on record as 47.8%. In data set [3] (human), this compound showed a hepatocyte CLint at 1 μM of 0.676 µL/min/1e6 cells.

As to `[2H]C1([2H])CN(CC(=O)NC(C)(C)C([2H])([2H])[2H])CC([2H])([2H])C1CNC(=O)c1cc(F)cc(Cl)c1` [Compound 9, 3-chloro-5-fluoro-N-[[3,3,5,5-tetradeuterio-1-[2-oxo-2-[(2,2,2-trideuterio-1,1-dimethyl-ethyl)amino]ethyl]-4-piperidyl]methyl]benzamide], in data set [1], the “% of Control (intrinsic clearance relative to the control compound)” value came to 76.6%, the Half-Life was 0.172 h and the CLint is 1.35 µL/min/pmol. In addition, in data set [2], the Half-Life came to 26.17 h and the “% of Control (intrinsic clearance relative to the control compound)” value is recorded as 83.4%. Also, in data set [3] (human), the hepatocyte CLint at 1 μM came out at 1.18 µL/min/1e6 cells.

For the compound `[2H]C([2H])(C(=O)NC(C)(C)C)N1CCC(CNC(=O)c2cc(F)cc(Cl)c2)CC1` [Compound 6, N-[[1-[2-(tert-butylamino)-1,1-dideuterio-2-oxo-ethyl]-4-piperidyl]methyl]-3-chloro-5-fluoro-benzamide], in data set [1], the “% of Control (intrinsic clearance relative to the control compound)” value worked out at 77.2%, the Half-Life was 0.17 h and the CLint is 1.36 µL/min/pmol. Also, in data set [2], the Half-Life was 21.83 h and the “% of Control (intrinsic clearance relative to the control compound)” value amounted to 99.6%. Moreover, in data set [3] (human), the intrinsic metabolic clearance (hepatocyte CLint) at 1 μM stood at 1.41 µL/min/1e6 cells.

`[2H]C([2H])(C(=O)NC(C)(C([2H])([2H])[2H])C([2H])([2H])[2H])N1CCC(CNC(=O)c2cc(F)cc(Cl)c2)CC1` [Compound 17, 3-chloro-N-[[1-[1,1-dideuterio-2-oxo-2-[[2,2,2-trideuterio-1-methyl-1-(trideuteriomethyl)ethyl]amino]ethyl]-4-piperidyl]methyl]-5-fluoro-benzamide]: in data set [1], the “% of Control (intrinsic clearance relative to the control compound)” value was found to be 72.2%, the Half-Life came to 0.182 h and the CLint was found to be 1.27 µL/min/pmol. Besides, in data set [2], the Half-Life is 26.17 h and the “% of Control (intrinsic clearance relative to the control compound)” value came to 83.4%. The same compound registered a hepatocyte CLint at 1 μM in data set [3] (human) of 1.18 µL/min/1e6 cells.

Turning to `CC(C)(C)NC(=O)CN1CCC(CNC(=O)c2cc(F)cc(Cl)c2)CC1` [Control, reference compound], in data set [1], the “% of Control (intrinsic clearance relative to the control compound)” value stood at 100%, the Half-Life is 0.132 h and the CLint turned out to be 1.76 µL/min/pmol. Moreover, in data set [2], the Half-Life stood at 22.17 h and the “% of Control (intrinsic clearance relative to the control compound)” value is reported as 100%. The compound also displayed a hepatocyte CLint at 1 μM in data set [3] (human) of 1.42 µL/min/1e6 cells.

Regarding `[2H]C1([2H])CC(CNC(=O)c2cc(F)cc(Cl)c2)CC([2H])([2H])N1CC(=O)NC(C([2H])([2H])[2H])(C([2H])([2H])[2H])C([2H])([2H])[2H]` [Compound 16, 3-chloro-5-fluoro-N-[[2,2,6,6-tetradeuterio-1-[2-oxo-2-[[2,2,2-trideuterio-1,1-bis(trideuteriomethyl)ethyl]amino]ethyl]-4-piperidyl]methyl]benzamide], in data set [1], the “% of Control (intrinsic clearance relative to the control compound)” value came out at 61.4%, the Half-Life was 0.213 h and the CLint stood at 1.08 µL/min/pmol. In addition, in data set [2], the Half-Life was 28.33 h and the “% of Control (intrinsic clearance relative to the control compound)” value was 76.3%. Also, in data set [3], the hepatocyte CLint at 1 μM amounted to 1.08 µL/min/1e6 cells.

For the compound `[2H]C([2H])(NC(=O)c1cc(F)cc(Cl)c1)C1CCN(CC(=O)NC(C([2H])([2H])[2H])(C([2H])([2H])[2H])C([2H])([2H])[2H])CC1` [Compound 5, 3-chloro-N-[dideuterio-[1-[2-oxo-2-[[2,2,2-trideuterio-1,1-bis(trideuteriomethyl)ethyl]amino]ethyl]-4-piperidyl]methyl]-5-fluoro-benzamide], in data set [1], the “% of Control (intrinsic clearance relative to the control compound)” value was found to be 94.1%, the Half-Life was 0.14 h and the CLint is 1.66 µL/min/pmol. In data set [2], the Half-Life stood at 23.33 h and the “% of Control (intrinsic clearance relative to the control compound)” value was found to be 93.3%. This compound gave an intrinsic clearance (hepatocyte CLint) at 1 μM in data set [3] (human) of 1.32 µL/min/1e6 cells.

Consider `[2H]C1([2H])CC(CNC(=O)c2cc(F)cc(Cl)c2)CC([2H])([2H])N1CC(=O)NC(C)(C)C` [Compound 2, N-[[1-[2-(tert-butylamino)-2-oxo-ethyl]-2,2,6,6-tetradeuterio-4-piperidyl]methyl]-3-chloro-5-fluoro-benzamide], for which, in data set [1], the “% of Control (intrinsic clearance relative to the control compound)” value stood at 68.5%, the Half-Life came out at 0.192 h and the CLint was 1.21 µL/min/pmol. In data set [2], the Half-Life turned out to be 25.5 h and the “% of Control (intrinsic clearance relative to the control compound)” value was 85.5%. Moreover, the hepatocyte CLint at 1 μM in data set [3] was determined as 1.21 µL/min/1e6 cells.

For `[2H]C([2H])([2H])C(C)(C)NC(=O)CN1CCC(CNC(=O)c2cc(F)cc(Cl)c2)CC1` [Compound 7, 3-chloro-5-fluoro-N-[[1-[2-oxo-2-[(2,2,2-trideuterio-1,1-dimethyl-ethyl)amino]ethyl]-4-piperidyl]methyl]benzamide], in data set [1], the “% of Control (intrinsic clearance relative to the control compound)” value is given as 100%, the Half-Life worked out at 0.132 h and the CLint was 1.76 µL/min/pmol. Besides, in data set [2], the Half-Life was found to be 21.83 h and the “% of Control (intrinsic clearance relative to the control compound)” value worked out at 99.6%. In data set [3] (human), this compound displayed an intrinsic metabolic clearance (hepatocyte CLint) at 1 μM of 1.41 µL/min/1e6 cells.
